Data set [1] can be described thus: Spectral characteristics of sensors (absorption, emission, Stokes shift). Format: physicochemical. How it is done: (§1) NeuroSensor 715 was screened with various relevant amines via absorption and fluorescence spectroscopy. Steady-state fluorescence spectroscopic studies were performed using a Horiba Scientific Fluorolog-3 Model FL3C-111 spectrofluorometer and data was collected and analyzed using HJY FluorEssence™ 3.5.1.20 software package. UV-visible spectra were recorded on a Varian Cary 1E UV-visible spectrophotometer at 37° C.
(§2) A 1 mg/mL stock solution of NeuroSensor 715 in DMSO was prepared. A stock solution of NeuroSensor 715 and derivatives in buffer (2×10^−5 M, 25 mM HEPES, 50 mM Na2S2O3, pH 5.0) was prepared. Serotonin, norepinephrine, dopamine, and glutamate stock solutions were prepared by separately dissolving the analytes at the concentration to be used in the titrations with the buffered stock solution of NeuroSensor 715 (thus avoiding dilution of NeuroSensor 715 during the experiment). NeuroSensor 715 was titrated with aliquots of the analyte solution. NeuroSensor 715 derivatives were excited at 559 nm. The slit width was 10 nm for both excitation and emission.

For data set [2] the following is noted: in vitro; cited from earlier work.
Data set [3] is described as follows: Interaction of NS715 with epinephrine in vitro. Type of data set: binding.
Data set [4] in a line: Fluorescence/absorbance titration of NS715 with norepinephrine. Type of data set: binding. The procedure: as §1, §2
The subject of data set [5] is epinephrine-enriched chromaffin cells. Description: Confocal imaging of epinephrine-enriched chromaffin cells incubated with NS715. Type of data set: cell-based. Particulars: NS715 10 μM. The procedure:
(§3) NS715 binds to norepinephrine and strongly fluoresces, but not to epinephrine because it is a secondary-amine neurotransmitter. Both populations of cells were incubated with NS715 (10 μM), washed, and subsequently imaged using confocal microscopy. The unbound UV λmax=500 nm and the bound UV λmax=546 nm. The unbound sensor emits at 686 nm and the bound sensor emits at 715 nm. Excitation wavelengths of 458 nm and 633 nm were used to preferentially excite the unbound and bound forms of NS715. Emission for all excitation wavelengths was measured using 650 nm-710 nm bandpass filter.

The subject of data set [6] is norepinephrine-enriched chromaffin cells. Kind of data set: Confocal imaging of norepinephrine-enriched chromaffin cells incubated with NS715. The conditions noted are these: NS715 10 μM. Format: cell-based. How it is done: as §3
The nature of data set [7]: Fluorescence/absorbance titration of NS715 with dopamine. Type of data set: binding. How it is done: as §1, §2
Data set [8] can be described thus: Fluorescence/absorbance titration of NS715 with glutamate. Format: binding. The procedure: as §1, §2
Data set [9] in a line: Fluorescence/absorbance titration of NS715 with serotonin. Type of data set: binding. The procedure: as §1, §2
NeuroSensor 715 binds to all primary amines via iminium ion formation, which produces a red shift in absorption from 500 to 546 nm (FIG. 6 (A)). In fluorescence mode, exciting the unbound NeuroSensor 715 at 559 nm provided fluorescence emission at 686 nm. In fluorescence mode, exciting the bound complex at 559 nm upon adding serotonin produced a marked 8.0-fold fluorescence enhancement at […] (FIG. 6 (B)).

Where [10] appears, read: sensor saturated with primary amine analyte (bound).
Where [11] appears, read: thiophene in place of benzene moiety on NeuroSensor 521 platform.
[12] abbreviates: intensity at saturation from fit.
Setting [13] is: λex = 559 nm, λem = 780 nm, buffer pH 5.0, error ±10%.

“And” between values parts separate entries of the source, which are not always exact repeats. Equal values may be shown once.

With `CCN(CC)c1ccc2c(-c3cccs3)c(C=O)c(=O)oc2c1`, in [1] (setting [10]), the Stokes shift is 37 nm, the λabs came to 502 nm and the λem was found to be 539 nm. Further, in [1] (setting [11]), the “bathochromic shift in absorbance” value was 10 nm and the “bathochromic shift in fluorescence emission” value is listed as 17 nm. In data set [1] (unbound sensor), the Stokes shift came out at 60 nm, the λabs was determined as 462 nm and the λem is reported as 522 nm.
Turning to `CCN(CC)c1ccc2c(-c3ccc(OC)cc3)c(C=O)c(=O)oc2c1` [NS521], the “fluorescence response upon interaction with serotonin” value in data set [2] is listed as “fluorescence quenching”.
Turning to `CCN1CCN(CC)c2cc3c(-c4cccs4)c(C=O)c(=O)oc3cc21` [NS715], in data set [1] (both unbound and bound complex), the “increase of Stokes shift compared to thiophene-based NeuroSensor 521 derivative” value is “over 125 nm”. Further, the Stokes shift in [1] (setting [10]) is recorded as 169 nm; in data set [1] (unbound sensor, listed as NeuroSensor 715) it was 186 nm. Moreover, the λabs came out at 546 nm in data set [1] (setting [10]) and 500 nm in data set [1] (unbound sensor). For the same compound, the λem in data set [1] (setting [10]) is on record as 715 nm; in data set [1] (unbound sensor), 686 nm. Further, the “modulation of absorption or fluorescence spectrum upon interaction with epinephrine” value in [3] is “no modulation in the absorption or fluorescence spectrum”. For the same compound, the fluorescence enhancement in [4] (norepinephrine) is 3.0 fold; in data set [7], 3.4 fold; in data set [8] it was 3.0 fold; in [9] (serotonin, at 715 nm), 8.0 fold; in data set [9] (serotonin, excited at 559 nm, measured at 780 nm), 8.0 fold. In addition, the “higher binding constants of catecholamines compared to glutamate” value in [4] (norepinephrine and dopamine on average vs glutamate) was determined as 6.0 fold. For the same compound, the Isat/I0 in data set [4] (norepinephrine, intensity at saturation from fit) was 3.4; in data set [7] (setting [12]), 4.0; in [8] (setting [12]), 3.0; in [9] (serotonin, fluorescence intensity at saturation from fit to binding isotherm) it was 8.0. The Ka turned out to be 129 M⁻¹ in data set [4] (norepinephrine, λex = 559 nm, λem = 780 nm, buffer pH 5.0, error ±10%); 145 M⁻¹ in data set [7] (setting [13]); 22.3 M⁻¹ in data set [8] (setting [13]); 409 M⁻¹ in data set [9] (serotonin, fluorescence spectroscopy, λex = 559 nm, λem = 780 nm, buffer pH 5.0, error ±10%). Moreover, the results for the “fluorescence when excited at 633 nm” value in data set [5] and in [6] (norepinephrine-enriched cells) were “marginal fluorescence” and “punctate pattern with strong fluorescence”, respectively. The average fluorescence intensity is recorded as 0.85±0.29 in data set [5] (650-710 nm bandpass, n=20) and 12.42±1.75 in [6] (norepinephrine-enriched cells, 650-710 nm bandpass, n=20). Moreover, in [6], the “average fluorescence intensity of norepinephrine-enriched cells relative to epinephrine-enriched cells” value is recorded as 15 fold. Further, the “higher binding constant for serotonin compared to glutamate” value in data set [9] (serotonin vs glutamate, listed as NeuroSensor 715) was 19 fold and 18 fold.
On to `CCN(CC)c1ccc2c(-c3ccccc3)c(C=O)c(=O)oc2c1` [benzene-based NeuroSensor 521 derivative], for which, in data set [1] (setting [10]), the Stokes shift is 32 nm, the λabs is recorded as 488 nm and the λem is 520 nm. Also, in data set [1] (unbound sensor), the Stokes shift stood at 53 nm, the λabs is reported as 452 nm and the λem stood at 505 nm.

Source of the values: patent publication US10222390B2, “Near-infrared fluorescent sensors for biological amines” (The Curators of the University of Missouri, priority 2015, dated 2019).
